Data: patent US7850981B2, “Immuno-adjuvant PDT treatment of metastatic tumors” (QLT, Inc., priority 1999, dated 2010)
Marks after values point to notes of the source that are not given here.

Assays:
[1] = system: Lewis Lung Carcinoma (LLC); assay: In vitro lymphocyte proliferation assay (MTS) with lymph node cells of LLC-bearing mice treated with PDT or PDV; type: cell-based, C57B1/6 mice; details: mean±standard deviation; lymph nodes 7-10 days after therapy; cultured with LLC antigen; PDV n=7 (ConA responders)
From the text: In order to assess the potential usefulness of various adjuvants and treatment parameters in PDV, an in vitro lymphocyte proliferation assay was designed and employed in a murine tumor model. The assay measures tumour-specific lymphocyte (tumor immunity) responses from animals treated with PDT and PDT combined with adjuvant (PDV). This permits the rapid evaluation of various PDT/adjuvant administration protocols.
Female C57B1/6 mice are implanted subcutaneously on the shaved right flank with the Lewis Lung Carcinoma (LLC) cell line. When tumours develop to approximately 5 mm diameter animals are treated with PDT or PDV. PDT is performed by delivering 1.0 mg/kg verteporfin i.v. 30 min prior to illumination of 125 J/cm^2 delivered at 70 mW/cm^2 (treatment time=29 min, 4 sec). […] Animals are monitored for general health and re-growth of the tumour following therapy.
Seven to 10 days following therapy, animals are sacrificed and inguinal, axillary, cervical, and periaortic lymph nodes are aseptically removed. […] Following 3 to 5 days of culture, the degree of proliferation is assessed using 3-(4,5-dimethylthiazol-2-yl)-5-(3-carboxymethoxyphenyl)-2-(4-sulfophenyl)-2H-tetrazolium, inner salt (Owen's reagent, MTS, from PROMEGA™), a variation of the MTT assay which produces a soluble formazan product which absorbs light at 490 nm. […]

B16-F1 melanoma = assay: B16-F1 melanoma: PDT (verteporfin 1.0 mg/kg i.v., 100 J/cm^2) with or without intratumoral TITERMAX, then experimental pulmonary metastases; type: in vivo, C57BL/6 mice
Method: Male, C57BL/6 mice were obtained from Charles River Canada (Montreal, QC) at 6 to 8 weeks of age. The B 16-F0 and B 16-F1 melanoma cell lines were obtained from the […] (ATC™) (Manassas, Va.) and grown as cell cultures in Dulbecco's Modified Eagle Medium (DMEM) (Gibco) supplemented with 10% fetal bovine serum (Sigma). The cells adhered to tissue culture plates, were removed for passage with 0.25% trypsin with 1.0 mM ethylenediaminetetraacetic acid (EDTA) (Gibco), and were cryo-preserved in liquid nitrogen in DMEM plus 40% FBS and 10% DMSO. Mice were injected with 5×10^5 tumor cells in a total volume of 50 μL subcutaneously into the shaved, right flank. The tumor size was monitored daily by measuring the diameter with vernier calipers and were treated when the tumors reached approximately 5 mm in diameter. […] Subsequently the B16-F1 cell line was used for all experiments.
PDT treatment of mice bearing the B16-F1 tumor was performed as previously described for the M1 rhabdomyosarcoma mouse tumor (Richter et al., 1987; Richter et al., 1988; Richter et al., 1991). Each mouse was weighed, warmed under infrared light for less than 5 min to dilate the blood vessels, restrained, and injected intravenously (tail vein) with verteporfin at a concentration of 1.0 mg/kg body weight using a 28G needle. […] Following treatment, animals were monitored daily for tumor response. […]

M1 (rhabdomyosarcoma) = assay: Reimplantation of M1 tumor on Day 20 into tumor-free mice treated with PDT (verteporfin 1.0 mg/kg i.v. + light) with or without DETOX B-SE; type: in vivo; details: for Survival (tumour less than 1 cm long, not euthanized) / Tumor-take Rate: reimplanted Day 20
From the text: The thirty mice in treatment group 7 were implanted at the same time as those reimplanted on Groups 1-6 to provide a control for the rate of tumor-take. Ten mice were implanted on each of three separate batches of 10 mice to match the days of reimplantation of 1-6.
High dose PDT gave approximately 60% fewer tumors (n=9), and this percentage was not changed by the addition of high dose immunoadjuvant (n=5). The lower dose of immunoadjuvant combined with high dose PDT gave more protection against rechallenge (20% take rate, n=6).

[2] = Optimal PDT (75 J/cm^2), n = 9, day 23 post-PDT
[3] = Optimal PDT (75 J/cm^2), n = 9, day 26 post-PDT
[4] = Optimal PDT (75 J/cm^2), n = 9, day 29 post-PDT
[5] = Optimal PDT (75 J/cm^2), n = 9, day 32 post-PDT
[6] = Optimal PDT (75 J/cm^2), n = 9, day 35 post-PDT
[7] = Optimal PDT (75 J/cm^2), n = 9, day 38 post-PDT
[8] = Optimal PDT (75 J/cm^2), n = 9, day 41 post-PDT
[9] = Optimal PDT (75 J/cm^2), n = 9, day 44 post-PDT
[10] = Optimal PDT (75 J/cm^2), n = 9, day 47 post-PDT
[11] = Optimal PDT (75 J/cm^2), n = 9, day 50 post-PDT
[12] = Sub-optimal PDT (25 J/cm^2), n = 7, day 23 post-PDT
[13] = Sub-optimal PDT (25 J/cm^2), n = 7, day 26 post-PDT
[14] = Sub-optimal PDT (25 J/cm^2), n = 7, day 29 post-PDT
[15] = Sub-optimal PDT (25 J/cm^2), n = 7, day 32 post-PDT
[16] = Sub-optimal PDT (25 J/cm^2), n = 7, day 35 post-PDT
[17] = Sub-optimal PDT (25 J/cm^2), n = 7, day 38 post-PDT
[18] = Sub-optimal PDT (25 J/cm^2), n = 7, day 41 post-PDT
[19] = Sub-optimal PDT (25 J/cm^2), n = 7, day 44 post-PDT
[20] = Sub-optimal PDT (25 J/cm^2), n = 7, day 47 post-PDT
[21] = Sub-optimal PDT (25 J/cm^2), n = 7, day 50 post-PDT

## benzoporphyrin derivative monoacid ring A [verteporfin]
[1]
  lymphocyte proliferation, percent of lymphocytes without antigen: 108±11%
B16-F1 melanoma; of five animals per group, subcutaneous B16-F1 tumor
  animals that required repeated treatment to complete the tumor cure: 3
B16-F1 melanoma; one of the 5 animals treated with PDT alone, 14 days after i.v. tumor cells
  lung colonies: 6
M1 (rhabdomyosarcoma); High dose PDT (75 J/cm^2), n=9
  fewer tumors upon reimplantation than in untreated naïve mice: approximately 60%
M1 (rhabdomyosarcoma); Low dose PDT alone (25 J/cm^2), superior to low dose PDT combined with low-dose adjuvant
  protection against rechallenge relative to controls: substantial protection
M1 (rhabdomyosarcoma); [2]
  Survival (tumour less than 1 cm long, not euthanized): 100%
  Tumor-take Rate: 0%
M1 (rhabdomyosarcoma); [3]
  Survival (tumour less than 1 cm long, not euthanized): 100%
  Tumor-take Rate: 44^d %
M1 (rhabdomyosarcoma); [4]
  Survival (tumour less than 1 cm long, not euthanized): 100%
  Tumor-take Rate: 44^c %
M1 (rhabdomyosarcoma); [5]
  Survival (tumour less than 1 cm long, not euthanized): 100%
  Tumor-take Rate: 44^c %
M1 (rhabdomyosarcoma); [6]
  Survival (tumour less than 1 cm long, not euthanized): 89^c %
  Tumor-take Rate: 44^c %
M1 (rhabdomyosarcoma); [7]
  Survival (tumour less than 1 cm long, not euthanized): 89%
  Tumor-take Rate: 44^c %
M1 (rhabdomyosarcoma); [8]
  Survival (tumour less than 1 cm long, not euthanized): 89%
  Tumor-take Rate: 44^c %
M1 (rhabdomyosarcoma); [9]
  Survival (tumour less than 1 cm long, not euthanized): 78%
  Tumor-take Rate: 44^c %
M1 (rhabdomyosarcoma); [10]
  Survival (tumour less than 1 cm long, not euthanized): 56%
  Tumor-take Rate: 44^c %
M1 (rhabdomyosarcoma); [11]
  Survival (tumour less than 1 cm long, not euthanized): 56%
  Tumor-take Rate: 44^c %
M1 (rhabdomyosarcoma); [12]
  Survival (tumour less than 1 cm long, not euthanized): 100%
  Tumor-take Rate: 0%
M1 (rhabdomyosarcoma); [13]
  Survival (tumour less than 1 cm long, not euthanized): 100%
  Tumor-take Rate: 43%
M1 (rhabdomyosarcoma); [14]
  Survival (tumour less than 1 cm long, not euthanized): 100%
  Tumor-take Rate: 43%
M1 (rhabdomyosarcoma); [15]
  Survival (tumour less than 1 cm long, not euthanized): 100%
  Tumor-take Rate: 43%
M1 (rhabdomyosarcoma); [16]
  Survival (tumour less than 1 cm long, not euthanized): 100%
  Tumor-take Rate: 43%
M1 (rhabdomyosarcoma); [17]
  Survival (tumour less than 1 cm long, not euthanized): 100%
  Tumor-take Rate: 43%
M1 (rhabdomyosarcoma); [18]
  Survival (tumour less than 1 cm long, not euthanized): 100%
  Tumor-take Rate: 29%
M1 (rhabdomyosarcoma); [19]
  Survival (tumour less than 1 cm long, not euthanized): 86%
  Tumor-take Rate: 29%
M1 (rhabdomyosarcoma); [20]
  Survival (tumour less than 1 cm long, not euthanized): 86%
  Tumor-take Rate: 29%
M1 (rhabdomyosarcoma); [21]
  Survival (tumour less than 1 cm long, not euthanized): 86%
  Tumor-take Rate: 29%
